pEC50, pIC50: −log10 of the molar value. Like-named read-outs stand apart in the source and are kept apart here.
Assays:
AVPR1A = biological target: T1, AVPR1A (Homo sapiens, UniProt P37288); assay: Safety47 Calcium Flux AVPR1A; type: cell-based; settings: for Emax: read-out: Max Response; for pEC50: read-out: RC50 (EC50); for pIC50: read-out: RC50 (IC50)
T1 construct: purchased Eurofins Panlab Safety47 Safety Scan

CHRM2 = biological target: T2, CHRM2 (Homo sapiens, UniProt P08172); assay: Safety47 cAMP CHRM2; type: cell-based; settings: for Emax: read-out: Max Response; for pEC50: read-out: RC50 (EC50); for pIC50: read-out: RC50 (IC50)
T2 construct: purchased Eurofins Panlab Safety47 Safety Scan
T2 sequence (P08172 1-466): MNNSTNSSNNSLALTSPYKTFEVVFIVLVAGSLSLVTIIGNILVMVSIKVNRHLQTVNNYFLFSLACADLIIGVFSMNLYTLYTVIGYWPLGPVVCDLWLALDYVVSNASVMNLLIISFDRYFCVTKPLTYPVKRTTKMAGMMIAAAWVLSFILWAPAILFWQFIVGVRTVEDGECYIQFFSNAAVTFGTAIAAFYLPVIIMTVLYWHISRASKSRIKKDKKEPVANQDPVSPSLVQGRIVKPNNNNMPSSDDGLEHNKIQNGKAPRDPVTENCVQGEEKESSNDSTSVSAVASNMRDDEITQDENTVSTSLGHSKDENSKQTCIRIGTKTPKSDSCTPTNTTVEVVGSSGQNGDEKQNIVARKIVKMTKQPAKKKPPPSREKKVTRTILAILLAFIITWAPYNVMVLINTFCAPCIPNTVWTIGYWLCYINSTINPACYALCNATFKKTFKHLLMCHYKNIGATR

HRH2 = biological target: T3, HRH2 (Homo sapiens, UniProt P25021); assay: Safety47 cAMP HRH2; type: cell-based; settings: for Emax: read-out: Max Response; for pEC50: read-out: RC50 (EC50); for pIC50: read-out: RC50 (IC50)
T3 construct: purchased Eurofins Panlab Safety47 Safety Scan
T3 sequence (P25021 whole entry): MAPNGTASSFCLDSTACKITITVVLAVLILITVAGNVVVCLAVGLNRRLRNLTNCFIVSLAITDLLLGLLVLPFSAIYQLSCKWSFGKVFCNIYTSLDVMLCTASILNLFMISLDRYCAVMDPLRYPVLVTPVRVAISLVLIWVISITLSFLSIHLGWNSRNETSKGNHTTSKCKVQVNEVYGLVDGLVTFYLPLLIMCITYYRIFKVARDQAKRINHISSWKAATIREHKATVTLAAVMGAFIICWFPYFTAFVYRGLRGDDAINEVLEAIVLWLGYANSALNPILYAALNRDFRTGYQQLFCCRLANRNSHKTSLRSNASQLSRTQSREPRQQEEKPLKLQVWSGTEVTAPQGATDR

OPRD1 = biological target: T4, OPRD1 (Homo sapiens, UniProt P41143); assay: Safety47 cAMP OPRD1; type: cell-based; settings: for Emax: read-out: Max Response; for pEC50: read-out: RC50 (EC50); for pIC50: read-out: RC50 (IC50)
T4 construct: purchased Eurofins Panlab (Safety47 Safety Scan, contract panel)

OPRM1 = biological target: T5, OPRM1 (Homo sapiens, UniProt P35372); assay: Safety47 cAMP OPRM1; type: cell-based; settings: for Emax: OPRM1, cAMP, read-out: Max Response; for pEC50: read-out: RC50 (EC50); for pIC50: read-out: RC50 (IC50)
T5 construct: purchased Eurofins Panlab (Safety47 Safety Scan, contract panel)

CAV1.2 = biological target: T6, CAV1.2 (Homo sapiens, UniProt Q13936); assay: Safety47 Ion Channel CAV1.2; type: cell-based; settings: Blocker; for Emax: read-out: Max Response; for pIC50: read-out: RC50 (IC50)
T6 construct: purchased Eurofins Panlab (Safety47 Safety Scan, contract panel)
T6 sequence (Q13936 whole entry): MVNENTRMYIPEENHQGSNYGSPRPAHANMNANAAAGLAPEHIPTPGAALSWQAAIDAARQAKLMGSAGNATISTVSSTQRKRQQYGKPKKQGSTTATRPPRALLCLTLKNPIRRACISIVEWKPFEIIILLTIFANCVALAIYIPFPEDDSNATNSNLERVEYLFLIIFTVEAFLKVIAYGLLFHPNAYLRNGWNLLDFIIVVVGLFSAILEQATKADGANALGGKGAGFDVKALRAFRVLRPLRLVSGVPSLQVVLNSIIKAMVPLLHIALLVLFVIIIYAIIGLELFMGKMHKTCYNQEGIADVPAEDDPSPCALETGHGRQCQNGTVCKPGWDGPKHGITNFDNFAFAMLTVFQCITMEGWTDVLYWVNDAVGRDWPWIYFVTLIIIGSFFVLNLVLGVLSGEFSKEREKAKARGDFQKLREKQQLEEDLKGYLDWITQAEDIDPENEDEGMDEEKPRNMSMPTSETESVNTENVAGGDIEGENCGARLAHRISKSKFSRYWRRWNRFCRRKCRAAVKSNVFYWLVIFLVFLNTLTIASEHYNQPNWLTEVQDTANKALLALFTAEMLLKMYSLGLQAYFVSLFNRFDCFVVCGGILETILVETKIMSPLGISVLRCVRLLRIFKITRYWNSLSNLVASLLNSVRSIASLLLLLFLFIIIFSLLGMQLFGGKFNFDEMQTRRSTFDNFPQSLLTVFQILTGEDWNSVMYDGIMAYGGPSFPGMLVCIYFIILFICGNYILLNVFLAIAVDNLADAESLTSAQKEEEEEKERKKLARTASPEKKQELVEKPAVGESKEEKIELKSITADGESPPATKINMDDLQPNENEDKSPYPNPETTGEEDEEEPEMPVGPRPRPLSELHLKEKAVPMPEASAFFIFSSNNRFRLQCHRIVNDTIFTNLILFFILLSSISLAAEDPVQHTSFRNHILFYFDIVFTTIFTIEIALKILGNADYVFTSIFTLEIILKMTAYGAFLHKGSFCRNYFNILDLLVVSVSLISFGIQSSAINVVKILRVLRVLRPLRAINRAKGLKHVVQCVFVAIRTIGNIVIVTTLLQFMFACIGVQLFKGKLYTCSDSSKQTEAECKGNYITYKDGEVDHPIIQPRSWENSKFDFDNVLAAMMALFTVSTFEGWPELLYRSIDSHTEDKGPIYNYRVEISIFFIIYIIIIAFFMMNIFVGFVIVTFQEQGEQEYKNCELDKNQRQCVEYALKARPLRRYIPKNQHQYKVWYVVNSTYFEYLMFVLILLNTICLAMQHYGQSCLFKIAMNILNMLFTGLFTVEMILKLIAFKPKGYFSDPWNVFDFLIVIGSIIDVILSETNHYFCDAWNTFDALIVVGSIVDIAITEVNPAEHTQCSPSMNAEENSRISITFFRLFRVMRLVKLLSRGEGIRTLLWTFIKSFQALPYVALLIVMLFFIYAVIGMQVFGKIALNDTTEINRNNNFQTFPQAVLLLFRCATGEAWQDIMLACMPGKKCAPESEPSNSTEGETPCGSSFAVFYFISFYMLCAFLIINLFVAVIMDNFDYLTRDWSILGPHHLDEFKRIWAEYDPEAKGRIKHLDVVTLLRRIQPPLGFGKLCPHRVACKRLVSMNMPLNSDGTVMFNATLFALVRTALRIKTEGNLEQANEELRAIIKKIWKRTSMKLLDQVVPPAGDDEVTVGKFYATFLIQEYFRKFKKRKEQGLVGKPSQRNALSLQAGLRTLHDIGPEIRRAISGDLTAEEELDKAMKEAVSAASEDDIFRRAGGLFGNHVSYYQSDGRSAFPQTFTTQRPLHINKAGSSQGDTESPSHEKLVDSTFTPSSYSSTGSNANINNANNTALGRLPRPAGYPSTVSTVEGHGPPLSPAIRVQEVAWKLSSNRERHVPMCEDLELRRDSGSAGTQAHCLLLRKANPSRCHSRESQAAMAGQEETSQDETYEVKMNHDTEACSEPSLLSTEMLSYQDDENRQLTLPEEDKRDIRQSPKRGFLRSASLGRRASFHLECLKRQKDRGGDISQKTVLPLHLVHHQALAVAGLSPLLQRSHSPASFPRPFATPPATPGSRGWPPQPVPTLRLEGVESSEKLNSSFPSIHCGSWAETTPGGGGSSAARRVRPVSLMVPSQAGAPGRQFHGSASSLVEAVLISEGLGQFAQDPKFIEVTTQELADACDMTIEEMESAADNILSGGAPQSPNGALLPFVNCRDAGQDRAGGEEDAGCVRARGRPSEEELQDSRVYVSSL
T6 sequence (Q08289 whole entry partner): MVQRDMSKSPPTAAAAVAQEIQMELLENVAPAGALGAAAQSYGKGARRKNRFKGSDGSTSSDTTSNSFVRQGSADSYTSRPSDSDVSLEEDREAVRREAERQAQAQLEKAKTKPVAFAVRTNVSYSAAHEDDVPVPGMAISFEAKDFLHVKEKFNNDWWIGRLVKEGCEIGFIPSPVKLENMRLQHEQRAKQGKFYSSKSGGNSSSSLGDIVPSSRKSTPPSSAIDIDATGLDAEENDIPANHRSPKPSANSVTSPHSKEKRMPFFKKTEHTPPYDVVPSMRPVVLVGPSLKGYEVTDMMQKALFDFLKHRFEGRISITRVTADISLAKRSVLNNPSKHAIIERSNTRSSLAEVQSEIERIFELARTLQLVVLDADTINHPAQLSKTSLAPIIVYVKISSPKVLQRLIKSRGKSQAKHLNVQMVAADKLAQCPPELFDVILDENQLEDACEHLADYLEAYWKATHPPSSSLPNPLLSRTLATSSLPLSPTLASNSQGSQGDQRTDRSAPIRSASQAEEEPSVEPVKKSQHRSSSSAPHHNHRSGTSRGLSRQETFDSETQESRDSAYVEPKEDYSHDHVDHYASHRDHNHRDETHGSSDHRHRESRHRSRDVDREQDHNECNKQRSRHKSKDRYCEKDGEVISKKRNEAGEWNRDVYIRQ
T6 sequence (P54289 25-946 partner limits assumed): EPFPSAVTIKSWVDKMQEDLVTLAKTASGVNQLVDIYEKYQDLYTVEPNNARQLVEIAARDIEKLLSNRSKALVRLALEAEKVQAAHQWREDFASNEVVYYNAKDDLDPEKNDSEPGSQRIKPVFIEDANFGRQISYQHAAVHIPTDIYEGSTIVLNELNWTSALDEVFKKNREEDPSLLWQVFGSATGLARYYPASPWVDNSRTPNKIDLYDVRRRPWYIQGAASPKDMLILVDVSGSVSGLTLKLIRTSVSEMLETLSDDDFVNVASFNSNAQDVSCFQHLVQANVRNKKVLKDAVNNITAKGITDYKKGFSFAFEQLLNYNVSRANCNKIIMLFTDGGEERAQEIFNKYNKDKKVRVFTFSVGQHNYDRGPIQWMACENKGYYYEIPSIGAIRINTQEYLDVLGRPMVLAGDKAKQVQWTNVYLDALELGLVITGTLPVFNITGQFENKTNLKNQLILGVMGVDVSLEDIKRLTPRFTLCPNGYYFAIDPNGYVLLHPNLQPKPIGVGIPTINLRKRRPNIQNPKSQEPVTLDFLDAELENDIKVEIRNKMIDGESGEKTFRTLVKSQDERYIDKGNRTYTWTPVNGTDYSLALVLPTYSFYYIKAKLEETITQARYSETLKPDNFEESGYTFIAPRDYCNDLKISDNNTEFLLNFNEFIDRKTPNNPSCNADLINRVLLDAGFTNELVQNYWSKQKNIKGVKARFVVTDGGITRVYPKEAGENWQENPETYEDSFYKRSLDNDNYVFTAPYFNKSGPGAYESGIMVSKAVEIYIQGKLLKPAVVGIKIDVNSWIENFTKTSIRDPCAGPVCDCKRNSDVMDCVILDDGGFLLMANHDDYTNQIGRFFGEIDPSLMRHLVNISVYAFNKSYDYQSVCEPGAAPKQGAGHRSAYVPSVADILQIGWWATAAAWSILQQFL
T6 sequence (P54289 947-1103 partner limits assumed): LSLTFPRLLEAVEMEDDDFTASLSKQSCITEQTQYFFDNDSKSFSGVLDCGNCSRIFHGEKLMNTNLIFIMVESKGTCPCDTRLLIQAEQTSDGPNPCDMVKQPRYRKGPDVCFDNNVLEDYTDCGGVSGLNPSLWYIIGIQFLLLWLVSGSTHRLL

HTR3A = biological target: T7, HTR3A (Homo sapiens, UniProt P46098); assay: Safety47 Ion Channel HTR3A; type: cell-based; settings: for Emax: read-out: Max Response; for pIC50: read-out: RC50 (IC50); for pEC50: read-out: RC50 (EC50)
T7 construct: purchased Eurofins Panlab (Safety47 Safety Scan, contract panel)
T7 sequence (P46098 24-478): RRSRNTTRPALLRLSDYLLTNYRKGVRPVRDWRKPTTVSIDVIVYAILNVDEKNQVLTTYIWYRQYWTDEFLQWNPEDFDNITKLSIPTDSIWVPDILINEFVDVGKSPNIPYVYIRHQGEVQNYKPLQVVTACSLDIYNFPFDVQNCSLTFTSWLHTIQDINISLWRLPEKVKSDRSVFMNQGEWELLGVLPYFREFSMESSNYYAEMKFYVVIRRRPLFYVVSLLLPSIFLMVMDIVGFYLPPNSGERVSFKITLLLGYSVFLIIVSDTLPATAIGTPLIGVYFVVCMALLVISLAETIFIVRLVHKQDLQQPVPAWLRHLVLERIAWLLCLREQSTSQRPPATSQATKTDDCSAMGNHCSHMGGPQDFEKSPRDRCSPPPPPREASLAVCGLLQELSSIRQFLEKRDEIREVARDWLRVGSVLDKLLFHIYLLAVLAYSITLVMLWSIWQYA

nAChR(a4/b2) = biological target: T8, nAChR(a4/b2) (Homo sapiens, UniProt P17787+P43681); assay: Safety47 Ion Channel nAChR(a4/b2); type: cell-based; settings: for Emax: read-out: Max Response; for pIC50: read-out: RC50 (IC50); for pEC50: read-out: RC50 (EC50)
T8 construct: purchased Eurofins Panlab (Safety47 Safety Scan, contract panel)

NAV1.5 = biological target: T9, NAV1.5 (Homo sapiens, UniProt Q14524); assay: Safety47 Ion Channel NAV1.5; type: cell-based; settings: Blocker; for Emax: read-out: Max Response; for pIC50: read-out: RC50 (IC50)
T9 construct: purchased Eurofins Panlab (Safety47 Safety Scan, contract panel)

NMDAR (1A/2B) = biological target: T10, NMDAR (1A/2B) (Homo sapiens, UniProt Q05586+Q13224); assay: Safety47 Ion Channel NMDAR (1A/2B); type: cell-based; settings: for Emax: read-out: Max Response; for pIC50: read-out: RC50 (IC50); for pEC50: read-out: RC50 (EC50)
T10 construct: purchased Eurofins Panlab (Safety47 Safety Scan, contract panel)

INSR = biological target: T11, INSR (Homo sapiens, UniProt P06213); assay: Safety47 Kinase Binding INSR; settings: Kinases, Inhibitor; for Emax: read-out: Max Response; for pIC50: read-out: RC50 (IC50)
T11 construct: purchased Eurofins Panlab (Safety47 Safety Scan, contract panel)

LCK = biological target: T12, LCK (Homo sapiens, UniProt P06239); assay: Safety47 Kinase Binding LCK; settings: Kinases, Inhibitor; for Emax: read-out: Max Response; for pIC50: read-out: RC50 (IC50)
T12 construct: purchased Eurofins Panlab (Safety47 Safety Scan, contract panel)
T12 sequence (P06239 whole entry, species assumed): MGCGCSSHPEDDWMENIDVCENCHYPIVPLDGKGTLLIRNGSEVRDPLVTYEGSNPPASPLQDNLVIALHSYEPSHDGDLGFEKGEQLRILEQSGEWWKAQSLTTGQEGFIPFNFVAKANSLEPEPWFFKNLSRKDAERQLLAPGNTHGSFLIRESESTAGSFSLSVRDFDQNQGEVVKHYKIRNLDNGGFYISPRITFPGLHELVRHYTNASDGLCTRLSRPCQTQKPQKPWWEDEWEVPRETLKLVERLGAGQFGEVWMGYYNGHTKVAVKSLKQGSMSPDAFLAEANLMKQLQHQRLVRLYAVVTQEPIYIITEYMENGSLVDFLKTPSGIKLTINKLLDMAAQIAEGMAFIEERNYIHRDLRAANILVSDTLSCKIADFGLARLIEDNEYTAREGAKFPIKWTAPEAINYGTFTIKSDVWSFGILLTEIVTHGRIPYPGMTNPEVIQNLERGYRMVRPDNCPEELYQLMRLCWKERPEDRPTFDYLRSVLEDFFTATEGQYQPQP

MAOA = biological target: T13, MAOA (Homo sapiens, UniProt P21397); assay: Safety47 Enzymatic MAOA; type: biochemical; settings: Inhibitor; for Emax: read-out: Max Response; for pIC50: read-out: RC50 (IC50)
T13 construct: purchased Eurofins Panlab (Safety47 Safety Scan, contract panel)
T13 sequence (P21397 1-527): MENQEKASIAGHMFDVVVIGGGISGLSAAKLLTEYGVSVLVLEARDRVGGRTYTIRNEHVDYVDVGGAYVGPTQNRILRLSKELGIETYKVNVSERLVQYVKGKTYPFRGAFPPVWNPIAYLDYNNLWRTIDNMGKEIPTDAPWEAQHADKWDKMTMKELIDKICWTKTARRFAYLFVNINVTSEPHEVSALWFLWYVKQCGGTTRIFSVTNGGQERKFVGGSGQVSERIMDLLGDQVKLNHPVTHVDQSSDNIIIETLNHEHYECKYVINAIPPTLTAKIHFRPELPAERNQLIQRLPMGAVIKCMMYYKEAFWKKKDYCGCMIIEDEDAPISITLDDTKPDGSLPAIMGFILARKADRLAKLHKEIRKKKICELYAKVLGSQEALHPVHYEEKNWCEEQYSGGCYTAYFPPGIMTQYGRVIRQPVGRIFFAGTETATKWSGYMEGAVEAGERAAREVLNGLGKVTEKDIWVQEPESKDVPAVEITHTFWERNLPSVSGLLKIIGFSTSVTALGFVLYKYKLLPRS

SERT = biological target: T14, SERT (Homo sapiens, UniProt P31645); assay: Safety47 Transporter SERT; type: cell-based; settings: Blocker; for Emax: read-out: Max Response; for pIC50: read-out: RC50 (IC50)
T14 construct: purchased Eurofins Panlab Safety47 Safety Scan

In the case of `Cl.c1ccc2c(Nc3ccc4[nH]ccc4c3)nc(-c3ccncc3)nc2c1` [BC18630, N-1H-indol-5-yl-2-pyridin-4-ylquinazolin-4-amine hydrochloride], the Emax (AVPR1A; Agonist) was 8.97%, the pEC50 (AVPR1A; Agonist) was < 5.00 and the Emax (AVPR1A; Antagonist) was 15.9%. The pIC50 (AVPR1A; Antagonist) was < 5.00, the Emax (CHRM2; Agonist) was 31.6% and the pEC50 (CHRM2; Agonist) was < 5.00. The Emax (CHRM2; Antagonist) was 0.25%, the pIC50 (CHRM2; Antagonist) was < 5.00 and the Emax (HRH2; Agonist) was 0%. The pEC50 (HRH2; Agonist) was < 5.00, the “Curve Bottom” value (HRH2; Antagonist) was -8.58 and the “Curve Top” value (HRH2; Antagonist) was 73.68. The Hill (HRH2; Antagonist) was 1, the Emax (HRH2; Antagonist) was 43.2% and the pIC50 (HRH2; Antagonist) was 5.22. For the same molecule, the Emax (OPRD1; Agonist) was 42.6%, the pEC50 (OPRD1; Agonist) was < 5.00 and the Emax (OPRD1; Antagonist) was 9.94%. For the same molecule, the pIC50 (OPRD1; Antagonist) was < 5.00, the Emax (OPRM1; Agonist) was 8.65% and the Emax (OPRM1; Antagonist) was 49.4%. The pEC50 (OPRM1; cAMP, Agonist) was < 5.00, the pIC50 (OPRM1; cAMP, Antagonist) was < 5.00 and the Emax (CAV1.2) was 0%. For the same molecule, the pIC50 (CAV1.2) was < 5.00, the “Curve Bottom” value (HTR3A; Blocker) was 0 and the “Curve Top” value (HTR3A; Blocker) was 100. For the same molecule, the Hill (HTR3A; Blocker) was 1.9, the Emax (HTR3A; Blocker) was 69.9% and the pIC50 (HTR3A; Blocker) was 5.19. The Emax (HTR3A; Opener) was 0%, the pEC50 (HTR3A; Opener) was < 5.00 and the Emax (nAChR(a4/b2); Blocker) was 12.4%. For the same molecule, the pIC50 (nAChR(a4/b2); Blocker) was < 5.00, the Emax (nAChR(a4/b2); Opener) was 0% and the pEC50 (nAChR(a4/b2); Opener) was < 5.00. The Emax (NAV1.5) was 30%, the pIC50 (NAV1.5) was < 5.00 and the Emax (NMDAR (1A/2B); Blocker) was 0%. For the same molecule, the pIC50 (NMDAR (1A/2B); Blocker) was < 5.00, the Emax (NMDAR (1A/2B); Opener) was 0% and the pEC50 (NMDAR (1A/2B); Opener) was < 5.00. For the same molecule, the Emax (INSR) was 15.6%, the pIC50 (INSR) was < 5.00 and the Emax (LCK) was 49.1%. The pIC50 (LCK) was < 5.00, the Emax (MAOA) was 57% and the pIC50 (MAOA) was < 5.00. For the same molecule, the Emax (SERT) was 0% and the pIC50 (SERT) was < 5.00.
With `Cl.Fc1cc(Nc2nc(-c3ccncc3)nc3ncccc23)cc2cc[nH]c12` [BC18813, N-(7-fluoro-1H-indol-5-yl)-2-pyridin-4-ylpyrido[2,3-d]pyrimidin-4-amine hydrochloride] the Emax (AVPR1A; Agonist) was 1.07%, the pEC50 (AVPR1A; Agonist) was < 5.00 and the Emax (AVPR1A; Antagonist) was 16%. The pIC50 (AVPR1A; Antagonist) was < 5.00, the Emax (CHRM2; Agonist) was 47.7% and the pEC50 (CHRM2; Agonist) was < 5.00. For the same molecule, the Emax (CHRM2; Antagonist) was 12.2%, the pIC50 (CHRM2; Antagonist) was < 5.00 and the Emax (HRH2; Agonist) was 0%. The pEC50 (HRH2; Agonist) was < 5.00, the Emax (HRH2; Antagonist) was 45.8% and the pIC50 (HRH2; Antagonist) was < 5.00. The Emax (OPRD1; Agonist) was 54.8%, the pEC50 (OPRD1; Agonist) was < 5.00 and the Emax (OPRD1; Antagonist) was 0%. The pIC50 (OPRD1; Antagonist) was < 5.00, the Emax (OPRM1; Agonist) was 24.4% and the Emax (OPRM1; Antagonist) was 53.3%. The pEC50 (OPRM1; cAMP, Agonist) was < 5.00, the “Curve Bottom” value (OPRM1; cAMP, Antagonist) was -9.93 and the “Curve Top” value (OPRM1; cAMP, Antagonist) was 100. The Hill (OPRM1; cAMP, Antagonist) was 1.01, the pIC50 (OPRM1; cAMP, Antagonist) was 5.13 and the Emax (CAV1.2) was 0%. The pIC50 (CAV1.2) was < 5.00, the Emax (HTR3A; Blocker) was 0% and the pIC50 (HTR3A; Blocker) was < 5.00. The Emax (HTR3A; Opener) was 0.03%, the pEC50 (HTR3A; Opener) was < 5.00 and the Emax (nAChR(a4/b2); Blocker) was 0%. For the same molecule, the pIC50 (nAChR(a4/b2); Blocker) was < 5.00, the Emax (nAChR(a4/b2); Opener) was 0% and the pEC50 (nAChR(a4/b2); Opener) was < 5.00. The Emax (NAV1.5) was 8.29%, the pIC50 (NAV1.5) was < 5.00 and the Emax (NMDAR (1A/2B); Blocker) was 13.8%. For the same molecule, the pIC50 (NMDAR (1A/2B); Blocker) was < 5.00, the Emax (NMDAR (1A/2B); Opener) was 0% and the pEC50 (NMDAR (1A/2B); Opener) was < 5.00. For the same molecule, the Emax (INSR) was 0%, the pIC50 (INSR) was < 5.00 and the Emax (LCK) was 11.2%. The pIC50 (LCK) was < 5.00, the Emax (MAOA) was 22.2% and the pIC50 (MAOA) was < 5.00. The Emax (SERT) was 0% and the pIC50 (SERT) was < 5.00.
